Experimental data: PubChem BioAssay (NCI)
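In this assay, cells in 96-well plates receive the compound at five concentrations for 48 hours. Endpoints are linearly interpolated between the surrounding concentrations. TGI: concentration producing complete growth inhibition.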

Key:
Assay in all cases: NCI tumour cell line growth inhibition, 48 h
SNB-19 CNS = test system: SNB-19 CNS
TK-10 renal = test system: TK-10 renal
A498 renal = test system: A498 renal
MALME-3M melanoma = test system: MALME-3M melanoma
HCT-15 colon = test system: HCT-15 colon
NCI-H460 lung = test system: NCI-H460 lung
OVCAR-8 ovarian = test system: OVCAR-8 ovarian
HT29 colon = test system: HT29 colon
ACHN renal = test system: ACHN renal
DMS 114 small cell lung = test system: DMS 114 small cell lung
U251 CNS = test system: U251 CNS
HOP-18 NSCLC = test system: HOP-18 NSCLC
NCI-H522 lung = test system: NCI-H522 lung
IGROV1 ovarian = test system: IGROV1 ovarian
SW-620 colon = test system: SW-620 colon
SNB-78 CNS = test system: SNB-78 CNS
RPMI-8226 leukemia = test system: RPMI-8226 leukemia
HOP-62 NSCLC = test system: HOP-62 NSCLC
MOLT-4 leukemia = test system: MOLT-4 leukemia
SK-MEL-2 melanoma = test system: SK-MEL-2 melanoma
HCC-2998 colon = test system: HCC-2998 colon
HCT-116 colon = test system: HCT-116 colon
OVCAR-4 ovarian = test system: OVCAR-4 ovarian
SF-295 CNS = test system: SF-295 CNS
CAKI-1 renal = test system: CAKI-1 renal
SK-OV-3 ovarian = test system: SK-OV-3 ovarian
HL-60(TB) leukemia = test system: HL-60(TB) leukemia
SNB-75 CNS = test system: SNB-75 CNS
M14 melanoma = test system: M14 melanoma
UACC-62 melanoma = test system: UACC-62 melanoma
UACC-257 melanoma = test system: UACC-257 melanoma
KM20L2 colon = test system: KM20L2 colon
RXF 393 renal = test system: RXF 393 renal
DLD-1 colon = test system: DLD-1 colon
NCI-H23 lung = test system: NCI-H23 lung
UO-31 renal = test system: UO-31 renal
A549 NSCLC = test system: A549 NSCLC
RXF-631 renal = test system: RXF-631 renal
COLO 205 colon = test system: COLO 205 colon
DMS 273 small cell lung = test system: DMS 273 small cell lung
SK-MEL-5 melanoma = test system: SK-MEL-5 melanoma
SF-539 CNS = test system: SF-539 CNS
SF-268 CNS = test system: SF-268 CNS
M19-MEL melanoma = test system: M19-MEL melanoma
K-562 leukemia = test system: K-562 leukemia
OVCAR-3 ovarian = test system: OVCAR-3 ovarian
EKVX NSCLC = test system: EKVX NSCLC
LXFL 529 NSCLC = test system: LXFL 529 NSCLC
786-0 renal = test system: 786-0 renal
KM12 colon = test system: KM12 colon
SK-MEL-28 melanoma = test system: SK-MEL-28 melanoma
CCRF-CEM leukemia = test system: CCRF-CEM leukemia
SN12C renal = test system: SN12C renal
LOX IMVI melanoma = test system: LOX IMVI melanoma
MCF7 breast = test system: MCF7 breast
NCI-H226 lung = test system: NCI-H226 lung
HOP-92 NSCLC = test system: HOP-92 NSCLC
OVCAR-5 ovarian = test system: OVCAR-5 ovarian
NCI/ADR-RES ovarian = test system: NCI/ADR-RES ovarian
P388 leukemia = test system: P388 leukemia
P388/ADR leukemia = test system: P388/ADR leukemia
SN12K1 renal = test system: SN12K1 renal

Measured: TGI

COc1ccc(/C=C2\CCCC(C(NO)c3ccc(OC)cc3)C2=NO)cc1 (stereo not drawn)
> 100 µM: SNB-19 CNS | TK-10 renal | A498 renal | MALME-3M melanoma | HCT-15 colon | NCI-H460 lung | OVCAR-8 ovarian | HT29 colon | ACHN renal | DMS 114 small cell lung | U251 CNS | HOP-18 NSCLC | IGROV1 ovarian | SW-620 colon | SNB-78 CNS | RPMI-8226 leukemia | HOP-62 NSCLC | SK-MEL-2 melanoma | HCC-2998 colon | HCT-116 colon | OVCAR-4 ovarian | SF-295 CNS | CAKI-1 renal | SK-OV-3 ovarian | M14 melanoma | UACC-62 melanoma | UACC-257 melanoma | KM20L2 colon | DLD-1 colon | NCI-H23 lung | A549 NSCLC | RXF-631 renal | COLO 205 colon | DMS 273 small cell lung | SF-268 CNS | M19-MEL melanoma | K-562 leukemia | OVCAR-3 ovarian | EKVX NSCLC | LXFL 529 NSCLC | 786-0 renal | KM12 colon | CCRF-CEM leukemia | SN12C renal
96.7 µM: RXF 393 renal
43.1 µM: HL-60(TB) leukemia
83.3 µM: SF-539 CNS
79.6 µM: SNB-75 CNS
75.7 µM: UO-31 renal
82 µM: NCI-H522 lung
80.5 µM: MOLT-4 leukemia
47.6 µM: SK-MEL-5 melanoma
95.3 µM: SK-MEL-28 melanoma

CSc1cc(=O)n2c3ccccc3c3ccnc1c32
> 79.1 µM: IGROV1 ovarian
56.8 µM: EKVX NSCLC
98.2 µM: HOP-18 NSCLC
> 100 µM: SNB-19 CNS | LOX IMVI melanoma | A498 renal | MALME-3M melanoma | HCT-15 colon | NCI-H460 lung | OVCAR-8 ovarian | HT29 colon | DMS 114 small cell lung | U251 CNS | NCI-H522 lung | MCF7 breast | NCI-H226 lung | HOP-92 NSCLC | OVCAR-5 ovarian | SW-620 colon | SNB-78 CNS | RPMI-8226 leukemia | HOP-62 NSCLC | MOLT-4 leukemia | NCI/ADR-RES ovarian | P388 leukemia | SK-MEL-2 melanoma | HCC-2998 colon | HCT-116 colon | OVCAR-4 ovarian | SF-295 CNS | HL-60(TB) leukemia | P388/ADR leukemia | UACC-62 melanoma | UACC-257 melanoma | KM20L2 colon | RXF 393 renal | DLD-1 colon | NCI-H23 lung | UO-31 renal | A549 NSCLC | COLO 205 colon | DMS 273 small cell lung | SK-MEL-5 melanoma | M19-MEL melanoma | K-562 leukemia | SN12K1 renal | OVCAR-3 ovarian | KM12 colon | SK-MEL-28 melanoma | CCRF-CEM leukemia | SN12C renal
97.5 µM: SK-OV-3 ovarian
> 94.3 µM: SNB-75 CNS
> 75.5 µM: SF-268 CNS
> 71.4 µM: SF-539 CNS
